pEC50: −log10 of the molar value.
Key:
Assay type in all cases: cell-based
[1] = target: T1, STING variants (WT) (Homo sapiens, UniProt Q86WV6); assay: SEAP reporter assay in HEK-Blue ISG KO-STING cells transfected with STING WT variant (Method 2, 1 ng vector); conditions: compound concentration 2.5 (mM as printed); 24 h; SEAP signal ratio to 0.5% DMSO
T1 construct: host or cells: HEK-Blue ISG KO-STING cells (Invivogen, hkb-kostg)
From the text: (§1) Example II: STING Variants (WT & HAQ) Activation by Compounds in HEK-Blue™ ISG KO-STING Cells (Method 2)
(§2) Activation of STING can be determined using a SEAP reporter assay in HEK-Blue™ ISG KO-STING cells (Invivogen, cat #hkb-kostg) transfected with plasmids expressing STING variants (WT & HAQ) (referred to WO2017/175147A1). STING variants (WT & HAQ) vector were constructed based on STING-232H vector (Origene, RC208418). GFP vector (VT2069) was bought from Youbio. The detailed protocol as follows: HEK-Blue™ ISG KO-STING cells were harvest and seeding into 96 well plate and the final cell number was 0.8×10^5 cells/well. Transfections were prepared using Lipofectamine 2000 (Invitrogen, Cat #11668-027) following the manufacturer's instructions (Lipo2000:DNA=1:10), 20 ul of transfection suspension containing 1 ng (WT variant) or 0.0625 ng (HAQ variant) STING vector was added to cell culture plate and incubated at 37° C., 5% CO2 for 24 h. After 24 hours incubation, compounds were added at proper concentration, the final DMSO concentration was 0.5%. After 24h incubation, the supernatant was collected to detect SEAP signal using Great EscAPe SEAP chemiluminescence KIT (Clontech, cat #631738) and cells were collected to detect cell viability using CellTiter-Glo Luminescent Cell Viability Assay(Promega, cat #G7573) following the manufacturer's instructions. The data were described by the ratio of the stimulating signal of compounds to 0.5% DMSO.

[2] = target: T2, STING variants (HAQ) (Homo sapiens, UniProt Q86WV6, G230A/R293Q/R71H); assay: SEAP reporter assay in HEK-Blue ISG KO-STING cells transfected with STING HAQ variant (Method 2, 0.0625 ng vector); conditions: compound concentration 5 (mM as printed); 24 h; SEAP signal ratio to 0.5% DMSO
T2 construct: host or cells: HEK-Blue ISG KO-STING cells (Invivogen, hkb-kostg)
From the text: as §1, §2

[3] = target: T3, STING (Homo sapiens, UniProt Q86WV6, G230A/H232R/R293Q/R71H); assay: IFNβ release from THP1 by STING activation (hIFNβ ELISA); conditions: THP1 cells, 24 h, IFN-β in supernatant; inactive = IFNβ not detected at the maximum concentration of compounds
T3 construct: THP1 was purchased from National Collection of Authenticated Cell Cultures (Cat #TCHu 57); host or cells: THP1
In short: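 THP1 cells from log-phase culture, suspended at 2×10^6 cells/ml, were treated with an 8-point, 3-fold compound series (0.2% DMSO final) for 24 h at 37°C, 5% CO2. Secreted IFN-β in supernatant was quantified by human IFNβ ELISA, and EC50 was obtained by curve fitting.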

T3 sequence (Q86WV6 whole entry R71H/G230A/H232R/R293Q): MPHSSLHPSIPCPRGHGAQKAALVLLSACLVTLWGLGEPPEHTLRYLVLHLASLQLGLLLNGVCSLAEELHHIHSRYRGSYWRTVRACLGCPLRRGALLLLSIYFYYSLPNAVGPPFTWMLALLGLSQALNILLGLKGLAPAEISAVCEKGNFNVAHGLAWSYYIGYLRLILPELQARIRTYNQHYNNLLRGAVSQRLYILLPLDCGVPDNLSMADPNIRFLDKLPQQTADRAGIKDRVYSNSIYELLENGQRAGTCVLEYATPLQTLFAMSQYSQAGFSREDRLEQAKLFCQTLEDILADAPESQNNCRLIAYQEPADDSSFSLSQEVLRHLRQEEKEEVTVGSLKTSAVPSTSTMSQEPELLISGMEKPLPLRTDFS
T2 sequence (Q86WV6 whole entry R71H/G230A/R293Q): as the sequence (Q86WV6 whole entry R71H/G230A/H232R/R293Q) above, with R232H counted along it

Row | Structure (SMILES) | Fold change related to DMSO control, WT [1] | Fold change related to DMSO control, HAQ [2] | hIFNβ ELISA (EC50, μM) [3] | pEC50 [3]
1 | CCn1nc(C)cc1C(=O)Nc1nc2cc(C(N)=O)cc3c2n1C[C@@H](CO)O3 [Example 52, (S)-2-(1-ethyl-3-methyl-1H-pyrazole-5-carboxamido)-4-(hydroxymethyl)-3,4-dihydro-5-oxa-1,2a-diazaacenaphthylene-7-carboxamide] | 0.82 fold | 0.82 fold | inactive | –
2 | CCn1nc(C)cc1C(=O)Nc1nc2cc(C(N)=O)cc3c2n1CC(F)(F)CO3 [Example 53, 1-(1-Ethyl-3-methyl-1H-pyrazole-5-carboxamido)-8,8-difluoro-8,9-dihydro-7H-6-oxa-2,9a-diazabenzo[cd]azulene-4-carboxamide] | 1.53 fold | 2.42 fold | – | < 4.64
3 | CCn1nc(C)c(F)c1C(=O)Nc1nc2cc(C(N)=O)cc3c2n1[C@@H](C(C)C)CO3 [Example 54, (S)-2-(1-Ethyl-4-fluoro-3-methyl-1H-pyrazole-5-carboxamido)-3-isopropyl-3,4-dihydro-5-oxa-1,2a-diazaacenaphthylene-7-carboxamide] | 2.29 fold | 7.79 fold | – | < 4.78
4 | CCn1nc(C)c(Cl)c1C(=O)Nc1nc2cc(C(N)=O)cc3c2n1[C@@H](C(C)C)CO3 [Example 55, (S)-2-(4-chloro-1-ethyl-3-methyl-1H-pyrazole-5-carboxamido)-3-isopropyl-3,4-dihydro-5-oxa-1,2a-diazaacenaphthylene-7-carboxamide] | 1.38 fold | 2.96 fold | inactive | –
5 | CCn1nc(C)c(Br)c1C(=O)Nc1nc2cc(C(N)=O)cc3c2n1[C@@H](C(C)C)CO3 [Example 56, (S)-2-(4-Bromo-1-ethyl-3-methyl-1H-pyrazole-5-carboxamido)-3-isopropyl-3,4-dihydro-5-oxa-1,2a-diazaacenaphthylene-7-carboxamide] | 1.16 fold | 1.17 fold | inactive | –
6 | CCn1nc(C)cc1C(=O)Nc1nc2cc(C(N)=O)cc3c2n1CCCO3 [Example 57, 1-(1-Ethyl-3-methyl-1H-pyrazole-5-carboxamido)-8,9-dihydro-7H-6-oxa-2,9a-diazabenzo[cd]azulene-4-carboxamide] | 1.34 fold | 3.59 fold | inactive | –
7 | CCn1nc(C)cc1C(=O)Nc1nc2cc(C(N)=O)cc3c2n1[C@@H](CO)CO3 [Example 58, (S)-2-(1-ethyl-3-methyl-1H-pyrazole-5-carboxamido)-3-(hydroxymethyl)-3,4-dihydro-5-oxa-1,2a-diazaacenaphthylene-7-carboxamide] | 1.06 fold | 0.95 fold | – | < 4.30
8 | CCn1nc(C)cc1C(=O)Nc1nc2cc(C(N)=O)cc3c2n1CC1(COC1)CO3 [Example 59, 1-(1-Ethyl-3-methyl-1H-pyrazole-5-carboxamido)-7H,9H-6-oxa-2,9a-diazaspiro[benzo[cd]azulene-8,3′-oxetan]-1,2a,2a^1(5a),4-tetraene-4-carboxamide] | 1.22 fold | 1.13 fold | – | < 4.67
9 | CCn1nc(C)cc1C(=O)Nc1nc2cc(C(N)=O)cc3c2n1CCCN3C [Example 60, 1-(1-ethyl-3-methyl-1H-pyrazole-5-carboxamido)-6-methyl-6,7,8,9-tetrahydro-2,6,9a-triaza benzo[cd]azulene-4-carboxamide] | 6.55 fold | 73.46 fold | – | 4.80
10 | CCn1nc(C)cc1C(=O)Nc1nc2cc(C(N)=O)cc3c2n1CC1(CC1)CO3 [Example 61, 1-(1-ethyl-3-methyl-1H-pyrazole-5-carboxamido)-7H,9H-6-oxa-2,9a-diazaspiro[benzo[cd]azulene-8,1′-cyclopropan]-1,2a,3,5-tetraene-4-carboxamide] | 1.90 fold | 8.67 fold | – | < 4.78

More lines, now with the values ahead:

Row | Fold change related to DMSO control, WT [1] | Fold change related to DMSO control, HAQ [2] | hIFNβ ELISA (EC50, μM) [3] | pEC50 [3] | Structure (SMILES)
11 | 1.84 fold | 13.40 fold | – | < 4.57 | CCn1nc(C)cc1C(=O)Nc1nc2cc(C(N)=O)cc3c2n1[C@@H](C)CCO3 [Example 62, (S)-1-(1-ethyl-3-methyl-1H-pyrazole-5-carboxamido)-9-methyl-8,9-dihydro-7H-6-oxa-2,9a-diazabenzo[cd]azulene-4-carboxamide]
12 | 2.10 fold | 15.19 fold | – | < 4.78 | CCn1nc(C)c(F)c1C(=O)Nc1nc2cc(C(N)=O)cc3c2n1[C@@H](C)CCO3 [Example 63, (S)-1-(1-ethyl-4-fluoro-3-methyl-1H-pyrazole-5-carboxamido)-9-methyl-8,9-dihydro-7H-6-oxa-2,9a-diazabenzo[cd]azulene-4-carboxamide]
13 | 1.53 fold | 5.84 fold | – | < 4.89 | CCn1nc(C)c(F)c1C(=O)Nc1nc2cc(C(N)=O)cc3c2n1CC1(CC1)CO3 [Example 64, 1-(1-ethyl-4-fluoro-3-methyl-1H-pyrazole-5-carboxamido)-7,9-dihydrospiro[6-oxa-2,9a-diazabenzo[cd]azulene-8,1′-cyclopropane]-4-carboxamide]
14 | 1.63 fold | 8.89 fold | – | < 4.94 | CCn1nc(C)c(F)c1C(=O)Nc1nc2cc(C(N)=O)cc3c2n1CCCO3 [Example 65, 1-(1-ethyl-4-fluoro-3-methyl-1H-pyrazole-5-carboxamido)-8,9-dihydro-7H-6-oxa-2,9a-diazabenzo[cd]azulene-4-carboxamide]
15 | 7.15 fold | 71.56 fold | – | 5.55 | CCn1nc(C)c(F)c1C(=O)Nc1nc2cc(C(N)=O)cc3c2n1CCCN3C [Example 66, 1-(1-Ethyl-4-fluoro-3-methyl-1H-pyrazole-5-carboxamido)-6-methyl-6,7,8,9-tetrahydro-2,6,9a-triazabenzo[cd]azulene-4-carboxamide]
16 | 7.90 fold | 49.72 fold | – | 4.83 | CCn1nc(C)cc1C(=O)Nc1nc2cc(C(N)=O)cc3c2n1CC(C)(C)CN3 [Example 67, 1-(1-Ethyl-3-methyl-1H-pyrazole-5-carboxamido)-8,8-dimethyl-6,7,8,9-tetrahydro-2,6,9a-tri azabenzo[cd]azulene-4-carboxamide]
17 | 9.81 fold | 67.23 fold | – | 5.33 | CCn1nc(C)cc1C(=O)Nc1nc2cc(C(N)=O)cc3c2n1CC(C)(C)CN3C [Example 68, 1-(1-Ethyl-3-methyl-1H-pyrazole-5-carboxamido)-6,8,8-trimethyl-6,7,8,9-tetrahydro-2,6,9a-triazabenzo[cd]azulene-4-carboxamide]

Reference: US20240287093A1, “HIGH ACTIVITY STING PROTEIN AGONIST” (ADLAI NORTYE BIOPHARMA CO., LTD., priority 2018, published 2024)
